Source: patent US10640498B2, “Compounds” (MISSION THERAPEUTICS LIMITED, priority 2016, dated 2020)

Target: USP30 (Homo sapiens (Human), UniProt Q70CQ3)
Experiment: USP30 biochemical IC50 assay (fluorescence polarisation)
Conditions: enzyme and compound incubated 30 min at room temp; TAMRA labelled peptide-ubiquitin substrate 50 nM; read after 2 hr incubation; read-out: IC50 range
Procedure: USP30 Biochemical IC50 Assay
Dilution plates were prepared at 21 times the final concentration ([…] for a final concentration of 100 μM) in 50% DMSO in a 96-well polypropylene V-bottom plate (Greiner #651201). A typical 8-point dilution series to be 100, 30, 10, 3, 1, 0.3, 0.1, […].
Reactions were performed in duplicate in black 384 well plates (small volume, Greiner 784076) in a final reaction volume of 21 μl. Either 1 μl of 50% DMSO or diluted compound was added to the plate. USP30 was diluted in reaction buffer (40 mM Tris, pH 7.5, 0.005% Tween 20, 0.5 mg/ml BSA, 5 mM beta-mercaptoethanol) to the equivalent of 0.05 µl/well and 10 μl of diluted USP30 was added to the compound. Enzyme and compound were incubated for 30 min at room temp. Reactions were initiated by the addition of 50 nM of TAMRA labelled peptide linked to ubiquitin via an iso-peptide bond as fluorescence polarisation substrate. Reactions were read immediately after addition of substrate and following a 2 hr incubation at room temperature. Readings were performed on a Pherastar Plus (BMG Labtech). λ Excitation 540 nm; λ Emission 590 nm.

Chain of USP30 (Q70CQ3 57-517): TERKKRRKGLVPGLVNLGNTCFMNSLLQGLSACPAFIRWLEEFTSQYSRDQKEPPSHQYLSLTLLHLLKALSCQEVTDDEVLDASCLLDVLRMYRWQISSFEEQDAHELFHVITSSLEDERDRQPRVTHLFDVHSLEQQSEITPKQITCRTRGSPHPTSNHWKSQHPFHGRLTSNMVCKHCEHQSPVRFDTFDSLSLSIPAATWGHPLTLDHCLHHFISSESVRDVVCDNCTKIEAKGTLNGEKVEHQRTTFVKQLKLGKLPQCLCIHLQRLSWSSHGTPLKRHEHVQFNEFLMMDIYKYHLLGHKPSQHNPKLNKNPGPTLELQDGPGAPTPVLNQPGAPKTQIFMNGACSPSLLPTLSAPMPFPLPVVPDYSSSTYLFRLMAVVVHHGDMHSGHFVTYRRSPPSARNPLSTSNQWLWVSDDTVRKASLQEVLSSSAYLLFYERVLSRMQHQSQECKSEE

| IC50 [nM] | SMILES |
| --- | --- |
| 100 to 1000 | C[C@H]1CN(C#N)C[C@@H]1C(=O)N1CCc2cc(-c3ccccc3)cnc21 (racemic) [Example 52, Trans-3-methyl-4-(5-phenyl-2,3-dihydro-1H-pyrrolo[2,3-b]pyridine-1-carbonyl)-pyrrolidine-1-carbonitrile] |
| 100 to 1000 | N#CN1CCC(F)(C(=O)N2CCc3cc(-c4cccnc4)ccc32)C1 (racemic) [Example 57, 3-Fluoro-3-(5-(pyridin-3-yl)indoline-1-carbonyl)pyrrolidine-1-carbonitrile] |
| 100 to 1000 | C[C@@H]1CN(C#N)C[C@H]1C(=O)N1CCc2cc(-c3ccccc3Cl)ccc21 (relative stereo) [Example 13, (trans)-3-(5-(2-Chlorophenyl)indoline-1-carbonyl)-4-methylpyrrolidine-1-carbonitrile] |
| 100 to 1000 | CN(C(=O)[C@H]1CN(C#N)C[C@@H]1CO)c1ncc(-c2ccccc2)s1 (relative stereo) [Example 34, (trans)-1-Cyano-4-(hydroxymethyl)-N-methyl-N-(5-phenylthiazol-2-yl)pyrrolidine-3-carboxamide] |
| 1000 to 10000 | N#CN1C[C@H]2CN(c3ncc(-c4ccccc4)s3)C(=O)[C@H]2C1 (relative stereo) [Example 48, (cis)-4-Oxo-5-(5-phenylthiazol-2-yl)hexahydropyrrolo[3,4-c]pyrrole-2(1H)-carbonitrile] |
| 1000 to 10000 | CN(C(=O)C1CCN(C#N)C1)c1ccc(-c2ccccc2)cn1 (stereo in doubt) [Example 31, (S)-1-Cyano-N-methyl-N-(5-phenylpyridin-2-yl)pyrrolidine-3-carboxamide] |
| 1000 to 10000 | CCN(C(=O)C1CCN(C#N)C1)c1nc(-c2ccccc2)cs1 (stereo not drawn) [Example 1, 1-Cyano-N-ethyl-N-(4-phenylthiazol-2-yl)pyrrolidine-3-carboxamide] |
| 1000 to 10000 | CCN(C(=O)C1CCN(C#N)C1)c1ncc(-c2ccccc2)s1 (stereo not drawn) [Example 2, 1-cyano-N-ethyl-N-(5-phenylthiazol-2-yl)pyrrolidine-3-carboxamide] |
| 100 to 1000 | CN(C(=O)[C@H]1CCN(C#N)C1)c1ncc(-c2ccccc2)s1 [Example 3, (S)-1-Cyano-N-methyl-N-(5-phenylthiazol-2-yl)pyrrolidine-3-carboxamide] |
| 1000 to 10000 | CN(C(=O)[C@H]1CCN(C#N)C1)c1cc(-c2ccccc2)ccn1 [Example 4, (S)-1-Cyano-N-methyl-N-(4-phenylpyridin-2-yl)pyrrolidine-3-carboxamide] |
| 1000 to 10000 | CN(C(=O)[C@H]1CCN(C#N)C1)c1cccc(-c2ccccc2)n1 [Example 5, (S)-1-Cyano-N-methyl-N-(6-phenylpyridin-2-yl)pyrrolidine-3-carboxamide] |
| 1000 to 10000 | CC(C)N(C(=O)C1CCN(C#N)C1)c1nc(-c2ccccc2)cs1 (stereo not drawn) [Example 7, 1-Cyano-N-isopropyl-N-(4-phenylthiazol-2-yl)pyrrolidine-3-carboxamide] |
| 100 to 1000 | CN(C(=O)C1(F)CCN(C#N)C1)c1ncc(-c2ccccc2)s1 (stereo not drawn) [Example 8, 1-Cyano-3-fluoro-N-methyl-N-(5-phenylthiazol-2-yl)pyrrolidine-3-carboxamide] |
| 100 to 1000 | CN(C(=O)C1(F)CCN(C#N)C1)c1nc2ccccc2s1 (stereo not drawn) [Example 9, N-(Benzo[d]thiazol-2-yl)-1-cyano-3-fluoro-N-methylpyrrolidine-3-carboxamide] |
| 100 to 1000 | N#CN1CC[C@H](C(=O)N2CCc3c(-c4ccccc4)cccc32)C1 [Example 10, (S)-3-(4-Phenylindoline-1-carbonyl)pyrrolidine-1-carbonitrile] |
| 1000 to 10000 | N#CN1CC[C@@H](C(=O)N2CCc3ccc(-c4ccccc4)cc32)C1 [Example 11, (R)-3-(6-Phenylindoline-1-carbonyl)pyrrolidine-1-carbonitrile] |
| 100 to 1000 | N#CN1CC[C@H](C(=O)N2CCc3cc(-c4cccc(Cl)c4)ccc32)C1 [Example 12, (S)-3-(5-(3-Chlorophenyl)indoline-1-carbonyl)pyrrolidine-1-carbonitrile] |
| 100 to 1000 | N#CN1CCC(F)(C(=O)N2CCc3cc(-c4ccccc4)ccc32)C1 (stereo not drawn) [Example 14, 3-Fluoro-3-(5-phenylindoline-1-carbonyl)pyrrolidine-1-carbonitrile] |
| 100 to 1000 | N#CN1CCC(F)(C(=O)N2CCc3ccc(-c4ccccc4)cc32)C1 (stereo not drawn) [Example 15, 3-Fluoro-3-(6-phenylindoline-1-carbonyl)pyrrolidine-1-carbonitrile] |
| 100 to 1000 | N#CN1CCC(F)(C(=O)N2CCc3ccc(-c4ccccc4)nc32)C1 (stereo not drawn) [Example 16, 3-Fluoro-3-(6-phenyl-2,3-dihydro-1-H-pyrrolo[2,3-b]pyridine-1-carbonyl)pyrrolidine-1-carbonitrile] |

| IC50 [nM] | SMILES |
| --- | --- |
| 1000 to 10000 | N#CN1CC[C@@H](C(=O)N2CCc3cc(-c4ccccc4)ccc32)C1 [Example 17, (R)-3-(5-Phenylindoline-1-carbonyl)pyrrolidine-1-carbonitrile] |
| 100 to 1000 | N#CN1CC[C@H](C(=O)N2CCc3cc(-c4ccccc4)ccc32)C1 [Example 18, (S)-3-(5-Phenylindoline-1-carbonyl)pyrrolidine-1-carbonitrile] |
| 100 to 1000 | C[C@@H]1CN(C#N)C[C@H]1C(=O)N1CCc2cc(-c3ccccc3)ccc21 [Example 19, (3S,4S)-3-Methyl-4-(5-phenylindoline-1-carbonyl)pyrrolidine-1-carbonitrile] |
| 1000 to 10000 | C[C@H]1CN(C#N)C[C@@H]1C(=O)N1CCc2cc(-c3ccccc3)ccc21 [Example 20, (3R,4R)-3-Methyl-4-(5-phenylindoline-1-carbonyl)pyrrolidine-1-carbonitrile] |
| 1000 to 10000 | N#CN1CC[C@H](C(=O)N2CCc3cc(-c4ccccc4)cnc32)C1 [Example 21, (S)-3-(5-Phenyl-2,3-dihydro-1H-pyrrolo[2,3-b]pyridine-1-carbonyl)pyrrolidine-1-carbonitrile] |
| 100 to 1000 | N#CN1CCC(F)(C(=O)N2CCc3cc(-c4ccccc4)cnc32)C1 (stereo not drawn) [Example 22, 3-Fluoro-3-(5-phenyl-2,3-dihydro-1H-pyrrolo[2,3-b]pyridine-1-carbonyl)pyrrolidine-1-carbonitrile] |
| 100 to 1000 | N#CN1CC[C@H](C(=O)N2CCCc3cc(-c4ccccc4)ccc32)C1 [Example 23, (S)-3-(6-Phenyl-1,2,3,4-tetrahydroquinoline-1-carbonyl)pyrrolidine-1-carbonitrile] |
| 100 to 1000 | N#CN1CC[C@@H](C(=O)N2CCOc3cc(-c4ccccc4)ccc32)C1 [Example 24, (R)-3-(7-Phenyl-3,4-dihydro-2H-benzo[b][1,4]oxazine-4-carbonyl)pyrrolidine-1-carbonitrile] |
| 100 to 1000 | N#CN1CC[C@@H](C(=O)N2CCOc3ccc(-c4ccccc4)cc32)C1 [Example 25, (R)-3-(6-Phenyl-3,4-dihydro-2H-benzo[b][1,4]oxazine-4-carbonyl)pyrrolidine-1-carbonitrile] |
| 1000 to 10000 | N#CN1CC[C@@H](C(=O)N2CCOc3c(-c4ccccc4)cccc32)C1 [Example 26, (R)-3-(8-Phenyl-3,4-dihydro-2H-benzo[b][1,4]oxazine-4-carbonyl)pyrrolidine-1-carbonitrile] |
| 100 to 1000 | N#CN1CC[C@H](C(=O)N2CCc3c(-c4ccccc4)ccnc32)C1 [Example 27, (S)-3-(4-Phenyl-2,3-dihydro-1H-pyrrolo[2,3-b]pyridine-1-carbonyl)pyrrolidine-1-carbonitrile] |
| 1000 to 10000 | N#CN1CC[C@H](C(=O)N2CCc3c(-c4cccc(Cl)c4)ccnc32)C1 [Example 28, (S)-3-(4-(3-Chlorophenyl)-2,3-dihydro-1H-pyrrolo[2,3-b]pyridine-1-carbonyl)pyrrolidine-1-carbonitrile] |
| 1000 to 10000 | Cn1cc(-c2cc3c(cc2C#N)N(C(=O)[C@H]2CCN(C#N)C2)CC3)cn1 [Example 29, (S)-1-(1-Cyanopyrrolidine-3-carbonyl)-5-(1-methyl-1H-pyrazol-4-yl)indoline-6-carbonitrile] |
| 1000 to 10000 | N#CN1CC[C@@H](C(=O)N2CCOc3cc(-n4cccn4)ccc32)C1 [Example 30, (R)-3-(7-(1H-Pyrazol-1-yl)-3,4-dihydro-2H-benzo[b][1,4]oxazine-4-carbonyl)-pyrrolidine-1-carbonitrile] |
| 1000 to 10000 | CN(C(=O)[C@@H]1CCN(C#N)C1)c1cc(-c2ccccc2)cnn1 [Example 32, (R)-1-Cyano-N-methyl-N-(5-phenylpyridazin-3-yl)pyrrolidine-3-carboxamide] |
| 100 to 1000 | CN(C(=O)C1(F)CCN(C#N)C1)c1cc(-c2ccccc2)on1 (stereo not drawn) [Example 33, 1-Cyano-3-fluoro-N-methyl-N-(5-phenylisoxazol-3-yl)pyrrolidine-3-carboxamide] |
| 1000 to 10000 | N#CN1CCC(F)(C(=O)N2CCc3cc(-c4ccnn4Cc4ccccc4)ccc32)C1 (stereo not drawn) [Example 35, 3-(5-(1-Benzyl-1H-pyrazol-5-yl)indoline-1-carbonyl)-3-fluoropyrrolidine-1-carbonitrile] |
| 1000 to 10000 | Cn1nccc1-c1ccc2c(c1)CCN2C(=O)C1(F)CCN(C#N)C1 (stereo not drawn) [Example 36, 3-Fluoro-3-(5-(1-methyl-1H-pyrazol-5-yl)indoline-1-carbonyl)pyrrolidine-1-carbonitrile] |
| 100 to 1000 | CN1CCN(c2ccc(-c3ccc4c(c3)CCN4C(=O)C3(F)CCN(C#N)C3)cc2)CC1 (stereo not drawn) [Example 37, 3-Fluoro-3-(5-(4-(4-methylpiperazin-1-yl)phenyl)indoline-1-carbonyl)pyrrolidine-1-carbonitrile] |
